Legend:
[1] = molecular target: T1, 4-hydroxy-tetrahydrodipicolinate synthase (Escherichia coli K-12) (UniProt P0A6L2); assay: Inhibitory concentration against Escherichia coli dihydrodipicolinate synthase after 15 minutes
T1 sequence (whole entry): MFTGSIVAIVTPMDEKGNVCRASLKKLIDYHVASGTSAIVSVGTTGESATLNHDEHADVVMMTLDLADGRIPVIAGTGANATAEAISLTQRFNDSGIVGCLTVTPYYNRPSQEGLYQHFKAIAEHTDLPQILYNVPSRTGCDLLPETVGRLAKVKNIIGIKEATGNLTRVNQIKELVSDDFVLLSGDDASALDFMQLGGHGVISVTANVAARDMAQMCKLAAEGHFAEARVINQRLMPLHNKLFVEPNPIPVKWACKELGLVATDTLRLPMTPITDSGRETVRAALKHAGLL

[2] = molecular target: T1, 4-hydroxy-tetrahydrodipicolinate synthase (Escherichia coli K-12); assay: Inhibitory concentration against Escherichia coli dihydrodipicolinate synthase after 30 minutes

Q: What does the source list for `CCOC(=O)/C=C/C(=O)CCC(=O)OCC`?
A: Concentration [1]: 50 nM; Concentration [2]: 50 nM
